US9840500B2, “Compounds as dual inhibitors of histone methyltransferases and DNA methyltransferases” (FUNDACIÓN PARA LA INVESTIGACIÓN MÉDICA APLICADA, priority 2014, dated 2017)
Where two headings read alike, the source gives them in different places.

Assays:
[1] = tested on: LAL-CUN-2; experiment: Cell proliferation assay, LAL-CUN-2 (ALL); assay type: cell-based
Procedure: (§1) Cell proliferation was analyzed after 48 hours of in vitro treatment using the CellTiter 96 Aqueous One Solution Cell Proliferation Assay (Promega, Madison, Wis.). This is a colorimetric method for determining the number of viable cells in proliferation.
(§2) For the assay, suspension cells were cultured by triplicate at a density of 1×10^6 cells/ml in 96-well plates (100.000 cells/well, 100 μl/well), except for OCILY-3 and OCILY-10 cell lines which were cultured at a density of 0.5×10^6 cells/ml (50.000 cells/well, 100 μl/well) and for HepG2, Hep3B and PLC/PRF/5 cell ines which were cultured at a density of 3000 cells/well, 100 μl/well). Adherent cells were obtained from 80-90% confluent flasks and 100 μl of cells were seeded at a density of 5000 cells/well in 96-well plates by triplicate. Before addition of the compounds, adherent cells were allowed to attach to the bottom of the wells for 12 hours. In all cases, only the 60 inner wells were used to avoid any border effects.
(§3) After 48 hours of treatment, plates with suspension cells were centrifuged at 800 g for 10 minutes and medium was removed. The plates with adherent cells were flicked to remove medium. Then, cells were incubated with 100 ul/well of medium and 20 ul/well of CellTiter 96 Aqueous One Solution reagent. After 1-3 hours of incubation at 37° C., absorbance was measured at 490 nm in a 96-well plate reader. The background absorbance was measured in wells with only cell line medium and solution reagent. Data was calculated as a percentage of total absorbance of treated cell/absorbance of non treated cells.

[2] = tested on: JJN3; experiment: Cell proliferation assay, JJN3 (MM); assay type: cell-based
Procedure: as §1, §2, §3

[3] = tested on: CEMO-1; experiment: Cell proliferation assay, CEMO-1 (ALL); assay type: cell-based, human
Procedure: as §1, §2, §3

[4] = tested on: MV411; experiment: Cell proliferation assay, MV411 / MV4-11 (AML); assay type: cell-based
Procedure: as §1, §2, §3
(§4) Compounds 3-04 and 3-07 were tested against different solid tumour and oncohematological cell lines using the cell proliferation protocol described above.

[5] = tested on: OCI-AML-2; experiment: Cell proliferation assay, OCI-AML-2 (AML); assay type: cell-based
Procedure: as §1, §2, §3, §4

[6] = tested on: U266; experiment: Cell proliferation assay, U266 (MM); assay type: cell-based
Procedure: as §1, §2, §3

[7] = target: DNMT3A (Homo sapiens, UniProt Q9Y6K1); experiment: DNMT3A inhibition reported in the literature; assay type: biochemical; conditions: read-out: IC50 against DNMT3A
Chain of DNMT3A (Q9Y6K1 whole entry, looked up, species assumed): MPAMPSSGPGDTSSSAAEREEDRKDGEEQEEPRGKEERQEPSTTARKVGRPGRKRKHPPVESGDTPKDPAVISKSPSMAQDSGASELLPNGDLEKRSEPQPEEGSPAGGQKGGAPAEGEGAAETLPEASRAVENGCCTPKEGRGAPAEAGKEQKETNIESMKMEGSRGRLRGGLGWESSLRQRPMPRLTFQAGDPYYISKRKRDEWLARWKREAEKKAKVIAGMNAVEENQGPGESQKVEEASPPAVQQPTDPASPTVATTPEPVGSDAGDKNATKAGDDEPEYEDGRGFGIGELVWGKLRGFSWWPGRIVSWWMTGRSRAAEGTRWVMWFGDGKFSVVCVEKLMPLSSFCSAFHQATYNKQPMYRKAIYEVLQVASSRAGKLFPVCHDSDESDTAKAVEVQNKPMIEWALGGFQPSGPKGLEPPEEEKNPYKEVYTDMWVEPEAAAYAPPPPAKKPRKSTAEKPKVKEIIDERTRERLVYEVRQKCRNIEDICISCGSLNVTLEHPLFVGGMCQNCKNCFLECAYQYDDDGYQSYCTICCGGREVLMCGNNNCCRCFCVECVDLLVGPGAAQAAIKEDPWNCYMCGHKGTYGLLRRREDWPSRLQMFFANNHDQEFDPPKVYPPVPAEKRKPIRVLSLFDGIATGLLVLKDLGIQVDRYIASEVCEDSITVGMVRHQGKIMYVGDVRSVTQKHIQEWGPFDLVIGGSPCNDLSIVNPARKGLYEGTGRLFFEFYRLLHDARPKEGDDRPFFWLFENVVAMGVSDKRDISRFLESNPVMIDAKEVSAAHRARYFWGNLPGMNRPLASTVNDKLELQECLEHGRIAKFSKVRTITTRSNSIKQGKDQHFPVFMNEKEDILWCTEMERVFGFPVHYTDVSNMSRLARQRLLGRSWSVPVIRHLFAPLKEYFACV

[8] = tested on: BJ human fibroblasts; experiment: iPSC reprogramming of BJ human fibroblasts with lentiviral vectors (O:S:K:M); assay type: cell-based; conditions: compound concentration 200 nM
Text: The used reprogramming system consisted in four independent doxycycline inducible lentiviral vectors (FUW-Tet-O based vectors) coding for the human OCT4 (addgene, ref#20726), SOX2 (addgene, ref#20724), KLF4 (addgene, ref#20725) and cMYC (addgene, ref#20723) transcription factors (O:S:K:M) Vesicular Stomatitis Virus G (VSVG)-coated lentiviruses were generated in 293T cells as described previously (Tiscornia et al., Nat Protoc. 2006; 1(1):241-5.). Briefly, 293T cells (ATCC, CRL-3216) were transfected with FUW-TetO lentiviral vectors referred above along with packaging plasmids psPAX2 (addgene, ref#12260) and pMD2.G (addgene, ref#12259) under the same conditions as those disclosed by Tiscornia et al, supra. […]
• Day 2: Second infection of BJ cells (same conditions that first infection). • Day 3: Replate BJ cells in 2×175 cm^2 culture flask in fresh FCM. • Day 4: Incubate 1×175 cm^2 flask with 0.2 μM or 0.1 μM of test compound and the other flask just with FCM. Compound concentrations were selected according to the determined GI50 in BJ human fibroblasts, in order to avoid cytotoxicity. […]
Reprogramming efficiency was quantified four weeks after infection. Presence of ESC-like colonies was detected by alkaline phosphatase (AP) staining using Leukocyte Alkaline Phosphatase Kit (Sigma) according to the manufacturer's protocol.

[9] = tested on: BJ human fibroblasts; experiment: iPSC reprogramming of BJ human fibroblasts with retroviral vectors (O:S); assay type: cell-based; conditions: compound concentration 200 nM
[10] = target: T1, DNMT1 (Homo sapiens, UniProt P26358); experiment: DNMT1 inhibition reported in the literature; assay type: biochemical; conditions: read-out: IC50 against DNMT1
Target sequence in this assay (P26358 whole entry, species assumed): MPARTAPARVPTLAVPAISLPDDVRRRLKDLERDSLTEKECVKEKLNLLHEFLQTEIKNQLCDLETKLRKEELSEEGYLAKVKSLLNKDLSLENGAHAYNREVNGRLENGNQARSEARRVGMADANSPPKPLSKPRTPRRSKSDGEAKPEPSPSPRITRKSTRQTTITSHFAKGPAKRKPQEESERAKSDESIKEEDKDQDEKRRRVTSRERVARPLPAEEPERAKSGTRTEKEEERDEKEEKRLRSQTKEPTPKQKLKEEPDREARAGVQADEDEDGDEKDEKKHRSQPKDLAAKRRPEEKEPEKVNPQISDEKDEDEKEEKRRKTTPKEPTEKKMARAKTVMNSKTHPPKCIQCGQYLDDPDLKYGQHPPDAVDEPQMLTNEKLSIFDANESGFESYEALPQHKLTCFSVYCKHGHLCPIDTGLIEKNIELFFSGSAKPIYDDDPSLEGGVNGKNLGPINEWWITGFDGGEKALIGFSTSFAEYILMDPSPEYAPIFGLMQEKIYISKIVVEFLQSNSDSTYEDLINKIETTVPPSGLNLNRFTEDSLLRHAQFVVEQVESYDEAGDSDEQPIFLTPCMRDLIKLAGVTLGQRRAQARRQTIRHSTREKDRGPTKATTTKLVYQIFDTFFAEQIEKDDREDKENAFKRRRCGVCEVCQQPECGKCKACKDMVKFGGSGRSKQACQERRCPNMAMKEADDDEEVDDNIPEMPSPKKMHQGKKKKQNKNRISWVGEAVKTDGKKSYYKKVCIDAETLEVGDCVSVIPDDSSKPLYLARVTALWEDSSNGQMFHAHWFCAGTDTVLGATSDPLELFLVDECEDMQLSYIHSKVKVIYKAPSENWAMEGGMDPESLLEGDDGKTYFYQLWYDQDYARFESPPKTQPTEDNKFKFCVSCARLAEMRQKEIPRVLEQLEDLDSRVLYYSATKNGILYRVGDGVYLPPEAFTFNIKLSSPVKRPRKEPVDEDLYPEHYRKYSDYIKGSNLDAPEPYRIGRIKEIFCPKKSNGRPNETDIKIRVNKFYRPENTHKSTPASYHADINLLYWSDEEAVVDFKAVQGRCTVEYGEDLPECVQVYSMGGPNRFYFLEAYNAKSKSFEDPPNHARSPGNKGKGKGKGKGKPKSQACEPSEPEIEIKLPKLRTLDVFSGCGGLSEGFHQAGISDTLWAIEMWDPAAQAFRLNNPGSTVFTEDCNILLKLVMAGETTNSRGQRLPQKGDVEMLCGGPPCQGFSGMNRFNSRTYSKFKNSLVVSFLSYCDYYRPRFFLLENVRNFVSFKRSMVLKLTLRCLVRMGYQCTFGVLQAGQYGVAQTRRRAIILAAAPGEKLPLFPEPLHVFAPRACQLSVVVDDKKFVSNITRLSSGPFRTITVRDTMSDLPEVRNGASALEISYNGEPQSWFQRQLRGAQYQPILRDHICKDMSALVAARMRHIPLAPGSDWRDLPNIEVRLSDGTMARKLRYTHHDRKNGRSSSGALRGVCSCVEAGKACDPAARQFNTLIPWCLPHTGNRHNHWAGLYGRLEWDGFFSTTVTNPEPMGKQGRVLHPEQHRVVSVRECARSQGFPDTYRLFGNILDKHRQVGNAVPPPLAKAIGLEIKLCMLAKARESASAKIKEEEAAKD

[11] = tested on: OCI-Ly3; experiment: Cell proliferation assay, OCI-Ly3 (ABC-DLBCL); assay type: cell-based; conditions: Homo sapiens, 48 hours of treatment, Table 3
Procedure: as §1, §2, §3

[12] = target: T1, DNMT1; experiment: DNMT1 enzyme activity assay (TR-FRET, EPIgeneous methyltransferase assay); assay type: biochemical
Procedure, shortened: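 Human DNMT1, added at 1 nM, with 0.5% final DMSO; activity read by TR-FRET detection of the product SAH, where signal falls as SAH rises. The value is the 665/620 nm ratio, and IC50 comes from a 4-parameter inhibition fit.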
Target sequence in this assay (P26358 whole entry): as the sequence (P26358 whole entry, species assumed) above

[13] = tested on: PLC/PRF/5; experiment: Cell proliferation assay, PLC/PRF/5 (HCC); assay type: cell-based; conditions: Homo sapiens, 48 hours of treatment, Table 3
Procedure: as §1, §2, §3

[14] = target: T2, human G9a enzyme (Homo sapiens, UniProt Q96KQ7); experiment: G9a enzyme activity assay (TR-FRET); assay type: biochemical
T2 sequence (Q96KQ7 1-1210): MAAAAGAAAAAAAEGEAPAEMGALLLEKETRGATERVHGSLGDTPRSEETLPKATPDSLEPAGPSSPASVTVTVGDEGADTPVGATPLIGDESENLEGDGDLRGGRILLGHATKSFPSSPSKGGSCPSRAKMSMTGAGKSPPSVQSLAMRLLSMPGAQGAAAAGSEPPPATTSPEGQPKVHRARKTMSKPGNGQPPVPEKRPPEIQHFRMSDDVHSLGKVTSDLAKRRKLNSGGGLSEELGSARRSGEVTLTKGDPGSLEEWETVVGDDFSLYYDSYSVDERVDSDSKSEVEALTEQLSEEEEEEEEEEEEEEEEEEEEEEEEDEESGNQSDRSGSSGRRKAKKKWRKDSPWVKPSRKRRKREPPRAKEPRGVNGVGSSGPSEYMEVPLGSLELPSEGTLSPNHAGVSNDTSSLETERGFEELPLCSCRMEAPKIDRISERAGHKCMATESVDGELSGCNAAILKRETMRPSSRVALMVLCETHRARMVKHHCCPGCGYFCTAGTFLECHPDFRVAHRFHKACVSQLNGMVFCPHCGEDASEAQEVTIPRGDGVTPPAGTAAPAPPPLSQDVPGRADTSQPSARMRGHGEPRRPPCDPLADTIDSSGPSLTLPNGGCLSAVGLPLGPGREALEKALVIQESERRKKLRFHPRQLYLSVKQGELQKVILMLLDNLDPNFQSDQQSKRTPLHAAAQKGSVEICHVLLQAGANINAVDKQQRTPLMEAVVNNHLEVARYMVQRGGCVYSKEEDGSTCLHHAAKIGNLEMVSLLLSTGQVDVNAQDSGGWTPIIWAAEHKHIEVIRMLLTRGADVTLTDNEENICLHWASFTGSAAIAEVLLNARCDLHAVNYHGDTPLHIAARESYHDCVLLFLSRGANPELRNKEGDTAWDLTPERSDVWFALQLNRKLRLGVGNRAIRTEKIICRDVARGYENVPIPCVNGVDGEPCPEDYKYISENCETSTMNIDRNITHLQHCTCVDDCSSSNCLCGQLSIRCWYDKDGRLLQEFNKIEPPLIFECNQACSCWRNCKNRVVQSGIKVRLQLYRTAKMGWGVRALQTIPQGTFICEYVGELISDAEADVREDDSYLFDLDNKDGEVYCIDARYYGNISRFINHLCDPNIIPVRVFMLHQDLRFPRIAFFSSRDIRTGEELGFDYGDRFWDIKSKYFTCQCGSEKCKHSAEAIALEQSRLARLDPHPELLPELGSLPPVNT
Procedure, shortened: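 Sf9-expressed human G9a (added as 1 nM solution), 0.5% DMSO final, with streptavidin-XL665 at 16 μM final and europium cryptate donor. After 1 h at room temperature, the 665/620 nm ratio was read against vehicle and no-enzyme controls. IC50 from a 4-parameter inhibition fit.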

[15] = tested on: Hep3B; experiment: Cell proliferation assay, Hep3B (HCC); assay type: cell-based; conditions: Homo sapiens, 48 hours of treatment, Table 3
Procedure: as §1, §2, §3

[16] = tested on: HepG2; experiment: Cell proliferation assay, HepG2 (HCC); assay type: cell-based; conditions: Homo sapiens, 48 hours of treatment, Table 3
Procedure: as §1, §2, §3

[17] = tested on: OCI-Ly10; experiment: Cell proliferation assay, OCI-Ly10 (ABC-DLBCL); assay type: cell-based; conditions: Homo sapiens, 48 hours of treatment, Table 3
Procedure: as §1, §2, §3

[18] = target: T1, DNMT1; conditions: reported in the literature (Vedadi 2011; Liu 2013); read-out: IC50 against DNMT1; cited from earlier work
Target sequence in this assay (P26358 whole entry, species assumed): as the sequence (P26358 whole entry, species assumed) above

[19] = Homo sapiens, JJN-3, Table 5 comparison
[20] = Homo sapiens, ALL, Table 5 comparison
[21] = Homo sapiens, MV4-11, Table 5 comparison
[22] = Homo sapiens, OCI-AML2, Table 5 comparison
[23] = Homo sapiens, U-266, Table 5 comparison

Row | SMILES | GI50 ([1]; ALL, Table 5 comparison) [µM] | GI50 [2, 19] [µM] | GI50 [3, 20] [µM] | GI50 [4, 21] [µM] | GI50 [5, 22] [µM] | GI50 [6, 23] [µM] | other results
1 | COc1cc2c(NC3CCN(C(C)C)CC3)nc(C3CCCCC3)nc2cc1OCCCN1CCCC1 [UNC0638, 2-cyclohexyl-N-(1-isopropyl-4-piperidyl)-6-methoxy-7-(3-pyrrolidin-1-ylpropoxy)quinazolin-4-amine, reference compound] | 1 to 10 | ≥ 10 | 1 to 10 | ≥ 10 | 1 to 10 | ≥ 10 | 
2 | COc1cc2nc(N3CCCN(C)CC3)nc(NC3CCN(Cc4ccccc4)CC3)c2cc1OC [BIX01294, N-(1-benzyl-4-piperidyl)-6,7-dimethoxy-2-(4-methyl-1,4-diazepan-1-yl)quinazolin-4-amine] | 1 to 10 | ≥ 10 | 1 to 10 | ≥ 10 | 1 to 10 | ≥ 10 | IC50 [7]: > 100 µM; Folding respect to untreated (reprogramming efficiency, AP+ colonies) [8]: 1.29; Folding respect to untreated (reprogramming efficiency, AP+ colonies) [9]: 1.04; IC50 [10]: > 100 µM
3 | Nc1ncn([C@H]2C[C@H](O)[C@@H](CO)O2)c(=O)n1 [Decitabine, reference compound] | ≥ 10 |  |  |  |  |  | GI50 ([2]; Table 5 comparison): ≥ 10 µM; GI50 ([3]; ALL, Table 5 comparison): 0.1 to 1 µM; GI50 ([4]; Table 5 comparison): ≥ 10 µM; GI50 ([5]; Table 5 comparison): ≥ 10 µM; GI50 ([6]; Table 5 comparison): ≥ 10 µM
4 | COc1cc2c(NC3CCN(C4CC4)CC3)cc(-c3ccc(C)o3)nc2cc1OCCCN1CCCC1 [Compound 3-20] |  |  |  |  |  |  | GI50 ([1]; 48 hours of treatment, Table 3): 1 to 10 µM; GI50 [11]: 0.1 to 1 µM; IC50 [12]: 0.1 to 0.5 µM; GI50 ([3]; Homo sapiens, 48 hours of treatment, Table 3): 0.1 to 1 µM; GI50 [13]: 0.1 to 1 µM; IC50 [14]: < 0.1 µM; GI50 [15]: 0.1 to 1 µM; GI50 [16]: 0.1 to 1 µM; GI50 [17]: 0.1 to 1 µM
5 | Nc1ncn([C@@H]2O[C@H](CO)[C@@H](O)[C@H]2O)c(=O)n1 [5-azacytidine, reference compound] | ≥ 10 | ≥ 10 | 1 to 10 | 1 to 10 | ≥ 10 | 1 to 10 | 
6 | COc1cc2c(NC3CCN(C(C)C)CC3)nc(N3CCC(F)(F)CC3)nc2cc1OCCCN1CCCC1 [UNC0642, 2-(4,4-difluoro-1-piperidyl)-N-(1-isopropyl-4-piperidyl)-6-methoxy-7-(3-pyrrolidin-1-ylpropoxy)quinazolin-4-amine] |  |  |  |  |  |  | IC50 [18]: > 50 µM
